Source: patent US20230416329A1, “A PEPTIDE WITH DISULFIDE BONDS AND INHIBITORY ACTIVITY AGAINST SERINE PROTEASES, DERIVED HYBRID PEPTIDES THEREOF, AND USES THEREOF” (INSTITUTE OF MATERIA MEDICA , CHINESE ACADEMY OF MEDICAL …, priority 2020, published 2023)

Key:
[1] = target: DPP-IV (Homo sapiens, UniProt P27487); assay: Tolerance of GLP-1 and its analogues to DPP-IV (RP-HPLC remaining peak area); type: in vitro ADME; conditions: peptide 25 μM, DPP-IV 0.5 ng/μL, 37° C.; for Remaining peak area (%)/DPP-IV: 0.0 h; for remaining at 0.5 h, 25 μM / remaining at 2 h, 25 μM / remaining at 4 h, 25 μM / remaining at 8 h, 25 μM / remaining at 12 h, 25 μM: isolated DPP-IV enzyme in buffer, pH 8
DPP-IV, sequence (P27487 whole entry, species assumed): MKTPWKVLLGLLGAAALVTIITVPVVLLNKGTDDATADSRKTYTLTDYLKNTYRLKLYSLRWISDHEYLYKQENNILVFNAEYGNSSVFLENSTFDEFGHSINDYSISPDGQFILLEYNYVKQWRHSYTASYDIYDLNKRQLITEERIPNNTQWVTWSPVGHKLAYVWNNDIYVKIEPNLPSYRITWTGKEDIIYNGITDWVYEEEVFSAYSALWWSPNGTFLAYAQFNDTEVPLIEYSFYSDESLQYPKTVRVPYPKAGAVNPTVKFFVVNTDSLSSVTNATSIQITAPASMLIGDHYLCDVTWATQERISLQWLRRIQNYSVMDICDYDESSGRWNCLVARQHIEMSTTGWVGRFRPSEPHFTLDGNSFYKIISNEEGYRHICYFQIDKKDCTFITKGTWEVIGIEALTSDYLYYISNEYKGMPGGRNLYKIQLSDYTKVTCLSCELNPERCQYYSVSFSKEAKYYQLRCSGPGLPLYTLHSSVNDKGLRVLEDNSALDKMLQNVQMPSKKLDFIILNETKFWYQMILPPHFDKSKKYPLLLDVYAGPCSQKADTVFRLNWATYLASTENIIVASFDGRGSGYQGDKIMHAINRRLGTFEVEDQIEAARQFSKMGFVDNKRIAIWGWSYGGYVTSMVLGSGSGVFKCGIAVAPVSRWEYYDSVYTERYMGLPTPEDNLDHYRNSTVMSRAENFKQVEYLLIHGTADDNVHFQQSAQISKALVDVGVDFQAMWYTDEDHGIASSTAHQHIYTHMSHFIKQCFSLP
Procedure: (§1) Mix by centrifugation at 8000 rpm for 30 seconds.
(2) Arrange a certain volume of 0.005 μg/μL DPP-IV solution in another sterile EP.

[2] = target: NEP24.11 (Homo sapiens, UniProt P08473); assay: Tolerance of GLP-1 and its analogues to NEP24.11 (RP-HPLC remaining peak area); type: in vitro ADME; conditions: peptide 30 μM, NEP24.11 1.0 ng/μL; for Remaining peak area (%)/NEP24.11: 0.0 h; for Remaining peak area (%)/NEP24.11 / remaining at 0.5 h, 30 μM / remaining at 2 h, 30 μM / remaining at 4 h, 30 μM / remaining at 8 h, 30 μM: 37° C.; for remaining at 0.5 h, 30 μM / remaining at 2 h, 30 μM / remaining at 4 h, 30 μM / remaining at 8 h, 30 μM: isolated NEP24.11 enzyme in buffer; for remaining at 0.5 h, 30 μM: pH 7.4, 0.5 h; for remaining at 2 h, 30 μM: pH 7.4, 2.0 h; for remaining at 4 h, 30 μM: pH 7.4, 4.0 h; for remaining at 8 h, 30 μM: pH 7.4, 8.0 h, read-out: Remaining peak area (%)/NEP24.11
NEP24.11, sequence (P08473 whole entry): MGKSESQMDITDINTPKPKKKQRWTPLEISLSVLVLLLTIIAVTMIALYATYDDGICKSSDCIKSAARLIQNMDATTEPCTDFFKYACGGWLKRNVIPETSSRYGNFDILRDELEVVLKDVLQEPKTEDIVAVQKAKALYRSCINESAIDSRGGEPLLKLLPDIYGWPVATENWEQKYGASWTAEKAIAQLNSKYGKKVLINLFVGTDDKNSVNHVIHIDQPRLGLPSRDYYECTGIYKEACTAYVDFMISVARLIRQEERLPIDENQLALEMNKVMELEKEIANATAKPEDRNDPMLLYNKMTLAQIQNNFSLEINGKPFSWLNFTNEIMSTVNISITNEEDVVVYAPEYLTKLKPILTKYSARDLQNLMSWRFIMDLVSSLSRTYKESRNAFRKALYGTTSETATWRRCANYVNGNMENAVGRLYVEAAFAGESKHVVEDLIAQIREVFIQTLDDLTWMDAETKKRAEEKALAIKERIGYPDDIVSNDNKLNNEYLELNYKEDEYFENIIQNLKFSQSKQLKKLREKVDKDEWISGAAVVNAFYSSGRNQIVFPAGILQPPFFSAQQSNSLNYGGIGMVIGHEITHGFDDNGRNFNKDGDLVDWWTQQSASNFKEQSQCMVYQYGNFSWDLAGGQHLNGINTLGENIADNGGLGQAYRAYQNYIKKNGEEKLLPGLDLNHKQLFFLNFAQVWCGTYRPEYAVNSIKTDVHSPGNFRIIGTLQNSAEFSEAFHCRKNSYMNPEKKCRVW
Procedure: as §1
Arrange a certain volume of 0.04 μg/μL NEP24.11 enzyme solution in another sterile EP.

[3] = target: T1, trypsin (Bos taurus, UniProt P00760); assay: in vitro; conditions: isolated enzyme trypsin, pH 7.8
T1 sequence (P00760 24-246): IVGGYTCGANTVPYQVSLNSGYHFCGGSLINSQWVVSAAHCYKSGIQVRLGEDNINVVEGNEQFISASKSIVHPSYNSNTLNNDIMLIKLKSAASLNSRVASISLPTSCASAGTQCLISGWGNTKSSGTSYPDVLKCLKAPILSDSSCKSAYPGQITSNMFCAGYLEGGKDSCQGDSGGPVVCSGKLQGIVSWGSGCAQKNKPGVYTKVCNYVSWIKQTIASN
Outline: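 Peptides were preincubated for 5 min at 37 °C and then digested with 0.05 μg/μL trypsin solution (stock). Remaining intact peptide was quantified as RP-HPLC peak area.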

[4] = target: chymotrypsin (Bos taurus, UniProt P00766); assay: in vitro; conditions: isolated enzyme chymotrypsin, pH 7.8, Remaining peak area (%)/chymotrypsin
Outline: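 Peptide and 0.05 μg/μL chymotrypsin were preincubated at 37 °C for 5 min, then mixed. Aliquots taken from 1.5 up to 60.0 min were quenched with 10% TFA, and remaining peptide was measured as RP-HPLC peak area.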

| remaining at 0.025 h, 60 μM [3] [%] | remaining at 0.05 h, 60 μM [3] [%] | remaining at 0.075 h, 60 μM [3] [%] | remaining at 0.1 h, 60 μM [3] [%] | remaining at 0.15 h, 60 μM [3] [%] | remaining at 0.025 h, 60 μM [4] [%] | remaining at 0.05 h, 60 μM [4] [%] | remaining at 0.075 h, 60 μM [4] [%] | remaining at 0.1 h, 60 μM [4] [%] | Compound | Remaining peak area (%)/DPP-IV [1] [%] | remaining at 0.5 h, 25 μM [1] [%] | remaining at 2 h, 25 μM [1] [%] | remaining at 4 h, 25 μM [1] [%] | remaining at 8 h, 25 μM [1] [%] | remaining at 12 h, 25 μM [1] [%] | Remaining peak area (%)/NEP24.11 [2] [%] | remaining at 0.5 h, 30 μM [2] [%] | remaining at 2 h, 30 μM [2] [%] | remaining at 4 h, 30 μM [2] [%] | remaining at 8 h, 30 μM [2] [%] | further results |
| --- | --- | --- | --- | --- | --- | --- | --- | --- | --- | --- | --- | --- | --- | --- | --- | --- | --- | --- | --- | --- | --- |
| 89.2 ± 3.7 | 83.2 ± 2.3 | 79.1 ± 1 | 84.4 ± 3.4 | 83.9 ± 0.5 | 79.5 ± 4.9 | 71.8 ± 2.7 | 64.9 ± 1 | 59.8 ± 2.9 | CC[C@H](C)[C@H](NC(=O)[C@H](Cc1ccccc1)NC(=O)[C@H](CCC(=O)O)NC(=O)[C@H](CCCCN)NC(=O)[C@H](C)NC(=O)[C@H](C)NC(=O)[C@H](CCC(N)=O)NC(=O)CNC(=O)[C@H](CCC(=O)O)NC(=O)[C@H](CC(C)C)NC(=O)[C@H](Cc1ccc(O)cc1)NC(=O)[C@H](CO)NC(=O)[C@H](CO)NC(=O)[C@@H](NC(=O)[C@H](CC(=O)O)NC(=O)[C@H](CO)NC(=O)[C@@H](NC(=O)[C@H](Cc1ccccc1)NC(=O)[C@@H](NC(=O)CNC(=O)[C@H](CCC(=O)O)NC(=O)[C@H](C)NC(=O)[C@H](Cc1c[nH]cn1)NC(=O)CNC(=O)CNC(=O)[C@H](CCCNC(=N)N)NC(=O)[C@H](CO)NC(=O)[C@H](Cc1ccccc1)NC(=O)[C@H](CCCNC(=N)N)NC(=O)[C@H](CCC(N)=O)NC(=O)CN)[C@@H](C)O)[C@@H](C)O)C(C)C)C(=O)N[C@@H](C)C(=O)N[C@@H](Cc1c[nH]c2ccccc12)C(=O)N[C@@H](CC(C)C)C(=O)N[C@H](C(=O)N[C@@H](CCCCN)C(=O)NCC(=O)N[C@@H](CCCNC(=N)N)C(=O)NCC(=O)NCC(=O)N[C@@H](CCCCN)C(=O)NCC(=O)N[C@@H](CCCNC(=N)N)C(=O)N[C@H]1CSSC[C@@H](C(=O)N[C@@H](Cc2ccccc2)C(=O)N2CCC[C@H]2C(=O)O)NC(=O)[C@H]([C@@H](C)CC)NC(=O)[C@@H]2CCCN2C(=O)[C@@H]2CCCN2C(=O)[C@H]([C@@H](C)CC)NC(=O)[C@H](CO)NC(=O)[C@H](CCCCN)NC(=O)[C@H]([C@@H](C)O)NC1=O)C(C)C [N-GLP-1-BT1] | 100.0 ± 0.0 | 84 ± 0.1 | 80.1 ± 0.9 | 76 ± 1.6 | 74.1 ± 0.5 | 72.1 ± 2 | 100.0 ± 0.0 | 82.3 ± 8.3 | 80.3 ± 2 | 74.4 ± 9.1 | 68.7 ± 8.4 | remaining at 0.25 h, 60 μM [3]: 84.5 ± 4.9%; remaining at 0.5 h, 60 μM [3]: 83.7 ± 3%; remaining at 1 h, 60 μM [3]: 83.5 ± 1.4%; remaining at 0.15 h, 60 μM [4]: 51.9 ± 1% |
| 105 ± 3 | 104 ± 2.8 | 102 ± 3 | 104 ± 6.4 | 103 ± 3.5 | 75.5 ± 5.3 | 56.3 ± 2.1 | 47 ± 1.6 | 38.1 ± 2.2 | CC[C@H](C)[C@H](NC(=O)[C@H](Cc1ccccc1)NC(=O)[C@H](CCC(=O)O)NC(=O)[C@H](CCCCN)NC(=O)[C@H](C)NC(=O)[C@H](C)NC(=O)[C@H](CCC(N)=O)NC(=O)CNC(=O)[C@H](CCC(=O)O)NC(=O)[C@H](CC(C)C)NC(=O)[C@H](Cc1ccc(O)cc1)NC(=O)[C@H](CO)NC(=O)[C@H](CO)NC(=O)[C@@H](NC(=O)[C@H](CC(=O)O)NC(=O)[C@H](CO)NC(=O)[C@@H](NC(=O)[C@H](Cc1ccccc1)NC(=O)[C@@H](NC(=O)CNC(=O)[C@H](CCC(=O)O)NC(=O)[C@H](C)NC(=O)[C@H](Cc1c[nH]cn1)NC(=O)CNC(=O)CNC(=O)[C@H](CCCNC(=N)N)NC(=O)[C@H](CO)NC(=O)[C@H](Cc1ccccc1)NC(=O)[C@H](CCCNC(=N)N)NC(=O)[C@H](CCC(N)=O)NC(=O)CN)[C@@H](C)O)[C@@H](C)O)C(C)C)C(=O)N[C@@H](C)C(=O)N[C@@H](Cc1c[nH]c2ccccc12)C(=O)N[C@@H](CC(C)C)C(=O)N[C@H](C(=O)N[C@@H](CCCCN)C(=O)NCC(=O)N[C@@H](CCCNC(=N)N)C(=O)NCC(=O)NCC(=O)N[C@@H](CCCCN)C(=O)NCC(=O)N[C@H]1CSSC[C@@H](C(=O)N[C@@H](Cc2ccccc2)C(=O)O)NC(=O)[C@H]([C@@H](C)CC)NC(=O)[C@@H]2CCCN2C(=O)[C@@H]2CCCN2C(=O)[C@H]([C@@H](C)CC)NC(=O)[C@H](CO)NC(=O)[C@H](CCCCN)NC(=O)[C@H]([C@@H](C)O)NC(=O)[C@H](C)NC(=O)[C@H](CCCNC(=N)N)NC(=O)CNC1=O)C(C)C [N-GLP-1-BT9] | 100.0 ± 0.0 | 90 ± 3 | 89.5 ± 1.8 | 89.6 ± 3.6 | 89.2 ± 1 | 89.3 ± 7.5 | 100.0 ± 0.0 | 85.9 ± 2.8 | 74.9 ± 1.4 | 66.8 ± 2.1 | 52.7 ± 3.9 | remaining at 0.25 h, 60 μM [3]: 102 ± 4.9%; remaining at 0.5 h, 60 μM [3]: 96.4 ± 9.9%; remaining at 1 h, 60 μM [3]: 86.3 ± 6.4%; remaining at 0.15 h, 60 μM [4]: 24.2 ± 3% |
| 16.9 ± 1.6 | 3.7 ± 5.3 | 1.2 ± 1.7 | 0 | 0 | 65.8 ± 2.6 | 69.3 ± 4 | 66.2 ± 1.9 | 60.9 ± 0.8 | CC[C@H](C)[C@H](NC(=O)[C@H](Cc1ccccc1)NC(=O)[C@H](CCC(=O)O)NC(=O)[C@H](CCCCN)NC(=O)[C@H](C)NC(=O)[C@H](C)NC(=O)[C@H](CCC(N)=O)NC(=O)CNC(=O)[C@H](CCC(=O)O)NC(=O)[C@H](CC(C)C)NC(=O)[C@H](Cc1ccc(O)cc1)NC(=O)[C@H](CO)NC(=O)[C@H](CO)NC(=O)[C@@H](NC(=O)[C@H](CC(=O)O)NC(=O)[C@H](CO)NC(=O)[C@@H](NC(=O)[C@H](Cc1ccccc1)NC(=O)[C@@H](NC(=O)CNC(=O)[C@H](CCC(=O)O)NC(=O)[C@H](C)NC(=O)[C@H](Cc1c[nH]cn1)NC(=O)CNC(=O)CNC(=O)[C@H](CCCNC(=N)N)NC(=O)[C@H](CO)NC(=O)[C@H](Cc1ccccc1)NC(=O)[C@H](CCCNC(=N)N)NC(=O)[C@H](CCC(N)=O)NC(=O)CNC(=O)CN)[C@@H](C)O)[C@@H](C)O)C(C)C)C(=O)N[C@@H](C)C(=O)N[C@@H](Cc1c[nH]c2ccccc12)C(=O)N[C@@H](CC(C)C)C(=O)N[C@H](C(=O)N[C@@H](CCCCN)C(=O)NCC(=O)N[C@@H](CCCNC(=N)N)C(=O)NCC(=O)NCC(=O)N[C@@H](CCCCN)C(=O)O)C(C)C [N-GLP-1] | 100.0 ± 0.0 | 73.9 ± 5 | 76.9 ± 3 | 79.6 ± 2.3 | 74.9 ± 5.3 | 74.6 ± 10.1 | 100.0 ± 0.0 | 83.9 ± 2.8 | 54.9 ± 13.6 | 51 ± 6.5 | 56.4 ± 15.8 | remaining amount after NEP24.11 hydrolysis ([2]; 8 hours): about 56.4%; remaining at 0.15 h, 60 μM [4]: 45.8 ± 5.4% |
